Data: patent publication US20060252740A1 (priority 2005, published 2006)

Key:
plasma protein = assay: Plasma protein binding, in vitro assays using human blood; assay type: in vitro ADME
cytochrome P450 enzymes = assay: In vitro metabolism studies; assay type: in vitro ADME
[1] = Stability of diluted drug product; assay type: physicochemical; conditions: drug product at a dilution of 1:7, room temperature
leukemia cells = conditions: cited from earlier work
[2] = test system: lung cancer cells with wild-type Rb; conditions: cited from earlier work

In the case of `C=CCNC1=C2C[C@@H](C)C[C@H](OC)[C@H](O)[C@@H](C)/C=C(\C)[C@H](OC(N)=O)[C@@H](OC)/C=C\C=C(/C)C(=O)NC(=CC1=O)C2=O` [17-AAG, 17-Allylamino-17-demethoxygeldanamycin], the “protein bound in plasma” value (plasma protein) is reported as “approximately 95%”, the “enzymes involved in metabolism” value (cytochrome P450 enzymes) is reported as “implicate the involvement of cytochrome P450 enzymes” and the stability after dilution [1] is reported as “up to 10 hours”. The “effect of exposure on client proteins” value (leukemia cells) was “down-regulation of intracellular Bcr-Abl and c-Raf proteins and reduction of Akt kinase activity” and the “effect of exposure on client proteins” value [2] was “degradation of cdk4, cdk6, and cyclin E”.
